Converted amounts (≈) assume the structure as drawn. Read-outs that look alike come from different tables or passages of the source. Marks after values point to notes of the source that are not given here.
Legend:
[1] = tested on: chloroquine-sensitive NF54 strain of P. falciparum; assay: in vitro screen against chloroquine-sensitive NF54 strain of P. falciparum; type: cell-based; settings: Plasmodium falciparum
[2] = tested on: chloroquine-resistant K1 strain of P. falciparum; assay: in vitro screen against chloroquine-resistant K1 strain of P. falciparum; type: cell-based; settings: for IC50: Plasmodium falciparum
[3] = tested on: ANKA strain of P. Berghei; assay: single dose STI in vivo screen in infected Moro SPF mice; settings: for inhibition in vivo at 10 mg/kg: Plasmodium berghei, 72 h; for Activity (%) po / Activity (%) sc: percent reduction in parasitemia day 3 post-infection
Procedure: In the single dose STI in vivo screen, Moro SPF mice infected with the ANKA strain of P. Berghei (groups of three mice) were treated on day one post-infection with trioxolanes dissolved or suspended in 3% ethanol and 7% Tween 80. […] Antimalarial activity was measured by percent redution in parasitemia on day three post-infection and survival times compared to an untreated control group. Survival to day 30 post-infection is considered to be a cure.

[4] = differential scanning calorimetry (DSC), thermal stability; type: physicochemical; settings: thermal decomposition
P. berghei [5] = assay: 1-day Peters test against P. berghei in vivo; settings: for ED50 / ED90: Plasmodium berghei, 24 h; for ED90: read-out: P. berghei (1 day) ED90 po
P. berghei [6] = assay: 4-day Peters test against P. berghei in vivo; settings: for ED50: Plasmodium berghei, 96 h
[7] = tested on: 21-day-old schistosomules of Schistosoma mansoni; assay: effect on 21-day-old schistosomules in mice; type: in vivo; settings: single 200 mg/kg per os; for FWR (%): female worm reduction rate; for Mean female worm burden: mean ± standard deviation; for TWR (%): total worm reduction rate
Procedure: […] Each group was treated per os with OZ compounds at a single dose of 200 mg/kg. Untreated mice served as the control. All groups were killed 4 weeks after treatment and the liver and intestine were removed and separated. The liver and intestine were compressed and alive male and female worms could be seen and counted. The effect of the compounds was evaluated by mean total and female worm burden.

[8] = tested on: adult schistosomes (49-day-old) of Schistosoma mansoni; assay: effect on adult schistosomes (49-day-old) in mice; type: in vivo; settings: single 400 mg/kg per os; for TWR (%): total worm reduction rate; for Mean total worm burden: x ± SD
Procedure: Mice were infected with 100 Schistosoma mansoni cercariae […]. Each group was treated per os with OZ compounds at a single dose of 400 mg/kg. Untreated mice served as the control. All groups were killed 4 weeks after treatment and the liver and intestine were removed and separated. The liver and intestine were compressed and alive male and female worms could be seen and counted.

[9] = NF54, read-out: IC50 (ng/ml) NF54
[10] = po, read-out: P. berghei (1 day) ED50 po
[11] = sc, read-out: P. berghei (1 day) ED50 sc

For `C1COC2(CCC3(CC2)OOC2(O3)C3CC4CC(C3)CC2C4)O1` (stereo not shown) [OZ10, Adamantane-2-spiro-3′-1′,2′,4′,9′,12′-pentaoxadispiro[4.2.4.2]tetradecane], the IC50 [1, 9] was 0.67 ng/mL (≈ 2.08 nM), the IC50 ([2]; K1, read-out: IC50 (ng/ml) K1) was 0.4 ng/mL (≈ 1.24 nM) and the inhibition in vivo at 10 mg/kg ([3]; po, read-out: Activity (%) po) was 99.6%. The inhibition in vivo at 10 mg/kg ([3]; sc, read-out: Activity (%) sc) was 100%, the “Tm dec. (° C.)” value [4] was 159.4 °C and the “P. berghei (1 day) ED90 sc” value (P. berghei [5]; 1 day, sc) was 2.2 mg/kg. The ED50 (P. berghei [5]; [10]) was 2.3 mg/kg, the ED90 (P. berghei [5]; po) was 6.3 mg/kg and the ED50 (P. berghei [5]; [11]) was 0.06 mg/kg. For the same molecule, the “P. berghei (4 day) ED90 po” value (P. berghei [6]; 4 day, po) was 3.0 mg/kg, the “P. berghei (4 day) ED90 sc” value (P. berghei [6]; 4 day, sc) was 0.9 mg/kg and the ED50 (P. berghei [6]; po, read-out: P. berghei (4 day) ED50 po) was 1.3 mg/kg. It also gave an ED50 (P. berghei [6]; sc, read-out: P. berghei (4 day) ED50 sc) of 0.5 mg/kg.
With `CC1(C)COC2(CCC3(CC2)OOC2(CC(C)(C)CC(C)(C)C2)O3)OC1` [OZ36, 2,2,4,4,14,14-Hexamethyl-7,12,16,19,20-pentaoxatrispiro[5.1.2.5.2.2]icosane] the IC50 [1, 9] was 62 ng/mL (≈ 168 nM), the IC50 ([2]; K1, read-out: IC50 (ng/ml) K1) was 24 ng/mL (≈ 65.1 nM) and the “in vitro potency, fold less potent than the analog” value ([2]; in vitro) was about 20 fold. For the same molecule, the “FWR (%)” value [7] was 12%, the “Mean female worm burden” value [7] was 11.0 ± 4.0^a and the “TWR (%)” value [7] was 16%. For the same molecule, the “in vivo activity” value ([3]; 10 mg/kg po/sc data of Table 2) was “all in vivo activity was lost”, the “Activity (%) po” value ([3]; single 10 mg/kg po) was 0/0% and the “Activity (%) sc” value ([3]; single 10 mg/kg sc) was 0/0%. For the same molecule, the “Survival (days) po” value ([3]; single 10 mg/kg po) was 5.7/5.7 days, the “Survival (days) sc” value ([3]; single 10 mg/kg sc) was 5.7/5.7 days and the “Tm dec. (° C.)” value [4] was 201.7 °C. For the same molecule, the “Percentage of dead worm” value [8] was 0, the Total dead worm [8] was 0 and the “TWR (%)” value [8] was 0%. For the same molecule, the “Mean total worm burden” value [8] was 40.2 ± 12.2.
For `C[C@@H]1CC[C@H]2[C@@H](C)C(=O)O[C@@H]3O[C@@]4(C)CC[C@@H]1[C@]32OO4` [Artemisinin, artemisinin, reference compound], the IC50 ([1]; in vitro, NF54 strain, read-out: IC50 (ng/ml) NF54) was 1.9 ng/mL (≈ 6.73 nM), the IC50 ([2]; in vitro, K1 strain, read-out: IC50 (ng/ml) K1) was 1.2 ng/mL (≈ 4.25 nM) and the “Activity (%) po” value ([3]; single 10 mg/kg po) was 65%. For the same molecule, the “Activity (%) sc” value ([3]; single 10 mg/kg sc) was 87%, the “Activity (%) po” value ([3]; single 100 mg/kg po) was 98% and the “Activity (%) sc” value ([3]; single 100 mg/kg sc) was 100%. The “Survival (days) po” value ([3]; single 10 mg/kg po) was 6.5 days, the “Survival (days) sc” value ([3]; single 10 mg/kg sc) was 7.0 days and the “Survival (days) po” value ([3]; single 100 mg/kg po, survival to day 30 = cure) was 7.3 days. For the same molecule, the “Survival (days) sc” value ([3]; single 100 mg/kg sc, survival to day 30 = cure) was 14 days, the ED50 (P. berghei [5]; 1 day, po, read-out: P. berghei (1 day) ED50 po) was 9.1 mg/kg and the ED90 (P. berghei [5]; 1 day, po) was 14 mg/kg.
For `C1CC2(CCO1)OOC1(O2)C2CC3CC(C2)CC1C3` (stereo not shown) [OZ22, Adamantane-2-spiro-3′-1′,2′,4′,8′-tetraoxaspiro[4.5]decane], the IC50 [1, 9] was 0.56 ng/mL (≈ 2.1 nM), the IC50 ([2]; K1, read-out: IC50 (ng/ml) K1) was 0.32 ng/mL (≈ 1.2 nM) and the “FWR (%)” value [7] was 76%. For the same molecule, the “Mean female worm burden” value [7] was 3.0 ± 1.9^b, the “TWR (%)” value [7] was 75% and the inhibition in vivo at 10 mg/kg ([3]; po, read-out: Activity (%) po) was 35%. It also gave an inhibition in vivo at 10 mg/kg ([3]; sc, read-out: Activity (%) sc) of 99.6%.
In the case of `C1CCCCCC2(CCCCC1)OOC1(O2)C2CC3CC(C2)CC1C3` (stereo not shown) [OZ20, Adamantane-2-spiro-3′-1′,2′,4′-trioxaspiro[4.11]hexadecane], the IC50 [1, 9] is reported as 20 ng/mL (≈ 57.4 nM), the IC50 ([2]; K1, read-out: IC50 (ng/ml) K1) is reported as 15 ng/mL (≈ 43 nM) and the “in vitro potency, fold less potent than the analog” value ([2]; in vitro) is reported as “order of magnitude”. The “FWR (%)” value [7] was 0%, the “Mean female worm burden” value [7] was 13.8 ± 5.5 and the “TWR (%)” value [7] was 0%. For the same molecule, the “Tm dec. (° C.)” value [4] was 170.5 °C, the “P. berghei (1 day) ED90 sc” value (P. berghei [5]; 1 day, sc) was 10 mg/kg and the ED50 (P. berghei [5]; [10]) was 4.3 mg/kg. For the same molecule, the ED90 (P. berghei [5]; po) was 9.7 mg/kg, the ED50 (P. berghei [5]; [11]) was 7.1 mg/kg and the “Percentage of dead worm” value [8] was 0. The Total dead worm [8] was 0, the “TWR (%)” value [8] was 0% and the “Mean total worm burden” value [8] was 38.6 ± 3.6.
With `C1CCC2(CC1)OOC1(CCC3(CC1)OOC1(CCCCC1)O3)O2` (stereo not shown) [OZ09, 7,12,19,20,23,24-Hexaoxatetraspiro[5.1.2.1.5.2.2.2]tetracosane] the IC50 [1, 9] was 39 ng/mL (≈ 115 nM), the IC50 ([2]; K1, read-out: IC50 (ng/ml) K1) was 32 ng/mL (≈ 94 nM) and the “antimalarial activity, overall assessment” value ([3]; overall judgement of in vitro and in vivo data of Table 2) was “less active”. For the same molecule, the “Tm dec. (° C.)” value [4] was 196.5 °C.
`O=C(NN=C1CCC2(CC1)OOC1(O2)C2CC3CC(C2)CC1C3)Nc1ccccc1` (stereo not shown) [OZ30, Adamantane-2-spiro-3′-1′,2′,4′-trioxaspiro[4.5]decan-8′-one 4-phenylsemicarbazone] showed an IC50 [1, 9] of 1.3 ng/mL (≈ 3.16 nM), an IC50 ([2]; K1, read-out: IC50 (ng/ml) K1) of 0.65 ng/mL (≈ 1.58 nM) and an IC50 ([2]; in vitro, K1 and NF54 strains not distinguished, read-out: IC50) of under 5 ng/mL. The “Tm dec. (° C.)” value [4] was 174.8 °C, the “P. berghei (4 day) ED90 po” value (P. berghei [6]; 4 day, po) was <10/>10 mg/kg and the ED50 (P. berghei [6]; 4 day, po, read-out: P. berghei (4 day) ED50 po) was under 10 mg/kg.

— patent US6486199B1, “Spiro and dispiro 1,2,4-trioxolane antimalarials” (Medicines for Malaria Venture MMV International Centre …, priority 2001, dated 2002)
